The results in this text go back to patent publication US11412737B2, “Mixtures of beflubutamid or optically enriched forms thereof with a second herbicide” (FMC Corporation, priority 2016, dated 2022).

What all share (type): in vivo
One data set has as its system Hemp sesbania (SEHE8). Kind of data set: pre-emergence test, weed control. The settings on record: pre-emergent, 28 DAT; BFL at 187.5 g, PYX at 90 g, combination of both. In short, it runs like this: (§1)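 Visual 0–100 ratings of percent control against untreated flats, averaged across four replicate flats, were taken at 28 days after treatment for all species (21 days for wheat). Treatments went onto freshly seeded, watered soil before emergence at a spray volume of 30 gallons per acre.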

The next data set concerns Large crabgrass (DIGSA). Kind of data set: pre-emergence test, weed control. The settings on record: pre-emergent, 28 DAT; rate g ai/ha by row: r4 94, r5 50, r6 100, r7 52.5, r8 70, r9 94+52.5, r10 94+70, r11 50+52.5, r12 50+70, r13 100+52.5, r14 100+70. In a few lines:
as §1

For another data set, the system named is Barley (B). As to the kind of experiment: post-emergence test, crop injury. The settings on record: post-emergent, 28 DAT, BFL racemic, height at application 14 cm; rate g ai/ha by row: r7 94, r8 125, r9 188, r10 125, r11 250, r12 94+125, r13 125+125, r14 188+125, r15 94+250, r16 125+250, r17 188+250. As to the method: Test compositions containing the test compounds were diluted with water to provide the appropriate test rate concentrations.
For post-emergence testing, seeds of each species for each rate of application of each herbicide solution were planted in 7.5 cm×7.5 cm plastic pots filled with potting soil. The seeds were germinated and the resulting plants were allowed to grow in a greenhouse until they reached a growth stage, such as height, suitable for testing. […] Pots of post-emergent treated plants were returned to the greenhouse and not watered for 24 hours after treatment. Thereafter they were regularly watered and fertilized for the duration of the test.
The control of weeds was evaluated in each experimental test at 21 for wheat and 28 days after treatment (DAT) for all species. […] The rating system is as follows in Table 1.

A further data set relates to Yellow foxtail (SETLU). As to the kind of experiment: pre-emergence test, weed control. The settings on record: pre-emergent, 28 DAT, (−)-BFL >95% e.e., rate g ai/ha by row: r6 62, r7 125, r8 125, r9 250, r10 445, r11 890, r12 45, r13 90, r14 62+125, r15 125+125, r16 62+250, r17 125+250, r18 62+445, r19 125+445, r20 62+890, r21 125+890, r22 62+45, r23 125+45, r24 62+90, r25 125+90. In short, it runs like this:
as §1

The next data set has as its system Blackgrass (ALOMY). Kind of data set: pre-emergence test, weed control. The settings on record: pre-emergent, 28 DAT. In a few lines:
as §1

`CCC(Oc1ccc(F)c(C(F)(F)F)c1)C(=O)NCc1ccccc1` (racemic) [BFL, 2-[4-fluoro-3-(trifluoromethyl)phenoxy]-N-(phenylmethyl)butanamide]: in the data set with Hemp sesbania (SEHE8), the “control of hemp sesbania” value is 28%. For the same molecule, in the data set with Large crabgrass (DIGSA), the “percentage of weed control, DIGSA” value is 25%. In addition, the “percentage of crop injury, B” value with Barley (B) is listed as 1%.
For `CC1(C)CON(Cc2ccc(Cl)cc2Cl)C1=O` [DCI, 2-(2,4-dichlorophenyl)methyl-4,4-dimethyl-3-isoxazolidinone], the entries for the “percentage of weed control, SETLU” value in the data set with Yellow foxtail (SETLU) (125 g ai/ha) and in the data set on Yellow foxtail (SETLU) (250 g ai/ha) were 75% and 96%, respectively. Also, the “percentage of weed control, ALOMY” value in the data set on Blackgrass (ALOMY) ((+)-BFL >95% e.e., rate g ai/ha by row: r6 62.5, r7 125, r8 62.5, r9 125, r10 222, r11 445, r12 22.5, r13 45, r14 62.5+62.5, r15 125+62.5, r16 62.5+125, r17 125+125, r18 62.5+222, r19 125+222, r20 62.5+445, r21 125+445, r22 62.5+22.5, r23 125+22.5, r24 62.5+45, r25 125+45, 62.5 g ai/ha) is given as 65%; with Blackgrass (ALOMY) ((+)-BFL >95% e.e., rate g ai/ha by row: r6 62.5, r7 125, r8 62.5, r9 125, r10 222, r11 445, r12 22.5, r13 45, r14 62.5+62.5, r15 125+62.5, r16 62.5+125, r17 125+125, r18 62.5+222, r19 125+222, r20 62.5+445, r21 125+445, r22 62.5+22.5, r23 125+22.5, r24 62.5+45, r25 125+45, 125 g ai/ha), 64%; with Blackgrass (ALOMY) ((−)-BFL >95% e.e., rate g ai/ha by row: r6 62, r7 125, r8 125, r9 250, r10 445, r11 890, r12 45, r13 90, r14 62+125, r15 125+125, r16 62+250, r17 125+250, r18 62+445, r19 125+445, r20 62+890, r21 125+890, r22 62+45, r23 125+45, r24 62+90, r25 125+90, 125 g ai/ha), 98%; in the data set with Blackgrass (ALOMY) ((−)-BFL >95% e.e., rate g ai/ha by row: r6 62, r7 125, r8 125, r9 250, r10 445, r11 890, r12 45, r13 90, r14 62+125, r15 125+125, r16 62+250, r17 125+250, r18 62+445, r19 125+445, r20 62+890, r21 125+890, r22 62+45, r23 125+45, r24 62+90, r25 125+90, 250 g ai/ha), 99%.
